In patent US8147837B2, “Use of mycobacterial mannosylated lipoglycans peptide mimotopes for treating inflammation” (priority 2004, dated 2012):
Ends that are not written are not given here.

What was measured:
[1] = test system: THP-1 human monocyte cell line; experiment: FITC-labeled peptide binding to THP-1 (FACS); format: cell-based
Method: (§1) RAW 264.7 cells were grown in a 250-ml flask, washed 3 times in cold PBS, and harvested, THP-1 cells were grown to 10^6/ml in 250-ml flask, centrifuged at 3000 rpm for 10 min, then washed 3 times in cold PBS. Cells were then incubated for 15 min at 37° C., with the FITC-labeled peptide diluted 1:50, then washed 3 times in cold PBS. The fluorescence levels of 10,000 cell counts were determined by FACS (Becton Dickinson, Franklin Lakes, N.J.) and analyzed by CELLQuest™ software. Assay of competitive binding between D-mannose and the FITC-labeled B11 peptide was performed according to Nguyen and Hildreth [Nguyen, D. G., and Hildreth, J. E. Eur J Immunol 33:483-493 (2003)].

[2] = test system: macrophage cell line RAW 264.7; experiment: FITC-labeled peptide binding to RAW 264.7 (confocal microscopy, FACS); format: cell-based, murine
Method: B11 peptide (50 μg) was conjugated to FITC (Biotium, Hayward, Calif.) as described by Sethi et al., [Sethi, K. K., et al. Cell Motil Cytoskeleton 52:231-241 (2002)]. For confocal microscopy, RAW 264.7 cells were grown in 8-well glass slides, Chamber Slide™ (Nunc), as described above. Cells were washed three times in cold PBS and incubated with the FITC-labeled mimotope for 5 min at 4° C. in serial dilutions of 1:2-1:100 in cold PBS. Slides were imaged immediately with a Zeiss 410 confocal laser scanning microscope.
as §1

allergic peritonitis = experiment: OVA induced allergic peritonitis model; format: in vivo, BALB/c mice
Method: For induction of allergic peritonitis, female BALB/c mice, 5-6 weeks old, were sensitized twice on days 1 and 7 by subcutaneous (s.c.) injection of 0.4 ml of a 0.9% solution of NaCl containing 100 μg ovalbumin (OVA) adsorbed on 1.6 mg Al(OH)3 (all Sigma) the mice received a second dose of the same s.c. injection. On day 11 Peritonitis was induced by the intraperitoneal (i.p.) injection of 0.4 ml of a solution containing 5 μg/ml OVA diluted in saline [Temkin V. et al., Cytokine. 24:74-80. (2003)]. Negative control group were sensitized with saline. On day 12 mice were sacrificed (24 h after challenge (peritonitis induction)), and the peritoneal cavity was washed with 5 ml of Tyrode buffer (3 mmol/L potassium chloride, 10 mmol/L sodium hydrogen carbonate, 20 mmol/L sodium chloride, 0.36 mmol/L sodium phosphate, 0.1% glucose (all Sigma)) containing 0.1% gelatin (TG buffer). Peritoneal lavage fluid was centrifuged (5 minutes, 150 g), supernatants were saved for cytokine ELISA, and cell pellets were re-suspended in 2 ml of TG buffer for eosinophil quantification. Cells were stained for 30 min. with Phycoerytrin (PE)-labeled anti-CCR3Ab (0.625 μg/ml; R&D systems, Abingdon, UK) and eosinophils were defined as cells expressing the eotaxin receptor CCR3 [Grimaldi et al., J Leukoc Biol. 65:846-53. (1999)] by FACS analysis.
Mice treated with B11 peptide were treated i.p. with 200 μg/mouse 1 hour before sensitizations (Group-S), 1 hour before challenge (Group-C), and 1 hour before both sensitizations and challenge (Group-S+C).
(§2) Cytokine levels in mouse sera, cell supernatants, peritoneum lavage, and BALF were assessed by ELISA tests using commercial pairs of antibodies and recombinant cytokines for TNFα IFN-γ, IL-10 and IL-4 (Pharmingen International, Oxford, UK), and IL-12 (Biosource International, Camarillo, Calif.) according to the manufacturer's instructions. The ranges of the sensitivities of the ELISA for the murine cytokines were 15-200 pg/ml for TNF-α, IFN-γ, IL-10, and IL-4, and 15-500 pg/ml for IL-12.

RAW 264.7 cell line = experiment: Apoptosis of RAW 264.7 cells; format: cell-based, murine
LPS-induced symptoms [3] = experiment: LPS mice model; format: in vivo, BALB/c mice
Method: Female BALB/c mice, 6-7 weeks old were injected i.p. with 150 μg LPS (Sigma) per mouse.
Treatment with peptide was performed four days before LPS injection, (i.p. 200 μg peptide per mouse).

primary spleen cells = experiment: Proliferation of primary spleen cells; format: cell-based, BALB/c mice
[4] = test system: IgG antibodies in sera of Mtb-infected mice; format: binding, BALB/c mice
[5] = test system: CS40 anti-ManLAM monoclonal antibody; experiment: ELISA competition vs. ManLAM for CS40 mAb; format: binding; conditions: 50 μg/ml of peptide
Method: ELISA competition assay was performed as described [Kaur, D., et al. Microbiology 148:3049-3057 (2002)]. Briefly, plates were coated with 0.5 μg/well ManLAM. Plates were blocked as described above. The CS40 mAb (diluted 1:2000) was mixed with various concentrations of either phage particles in TBS/1% BSA (0-1×10^18 particles/well) or peptides in PBS/1% BSA (0-200 μg/well). […] After washing (PBS), the ELISA procedure was performed as described above. Samples were all tested in triplicate.

LPS-induced symptoms [6] = experiment: LPS mice model; format: in vivo, BALB/c mice; conditions: B11 post-treatment, LPS 150 μg i.p.
CS40 mAb = experiment: Direct peptide ELISA with CS40 mAb; format: binding
[7] = test system: serum antibodies of TB patients; experiment: ELISA of human TB patients' sera on ManLAM or B11 coated plates; format: binding
From the text: Marchal (Pasteur Institute, Paris).

allergic asthma = experiment: OVA induced allergic asthma model; format: in vivo, mice
Method: For the induction of allergic asthma, mice were sensitized with OVA (Grade V, Sigma) adsorbed to Al(OH)3 gel (Aldrich Chemical Company, Milwaukee, Wis.), using 8 mg OVA/2 ml gel/0.5 ml H2O, pH 7.0-7.5, given intraperitoneally on days 0 and 14. On days 24 and 27 mice were challenged (induction of allergic asthma) with OVA i.n. Negative control group were sensitized with saline. The sensitization and challenge protocol used is an adaptation of a reported procedure [Blyth D. et al., Am. J. Respir. Cell Mol. Biol., 14: 425-438. (1996)].
Twenty-four hours after the second challenge mice were sacrificed. Bronchoalveolar lavage (BAL) was performed with PBS. Eosinophils in Bronchoalveolar lavage fluid (BALF) were detected as described above. Cytokine ELISA was performed to determine cytokine levels in BALF.
Mice treated with B11 peptide were treated with 200 μg/mouse 2 days before sensitizations (Group-S i.p.), 2 days before challenges i.p. (Group-C i.p.), or 1 hour before challenge i.n. (Group-C i.n.) and 2 days both before sensitization and challenge (Group-S+C i.p.).
Lung were excised and examined histologically and photographed after staining with haematoxylin and eosin.
as §2

[8] = test system: RAW 264.7 macrophage cell line; experiment: Cytokine secretion in RAW 264.7 cells (cytokine ELISA); format: cell-based, murine
TNBS induced colitis = experiment: TNBS induced colitis; format: in vivo, C57BL/6 mice
Method: In Specific pathogen-free male 4 month old C57BL/6 mice lightly anesthetized a 3.5F catheter was carefully inserted into the colon (4 cm proximal to the anus) administering 0.5 mg of the hapten reagent TNBS (Sigma) in 50% ethanol into the lumen of the colon at days 1 and 5. Animals were then kept in a vertical position for […] and returned to their cages. The mice were monitored for weight loss, behavior, appearance and diarrhea for 11 days. On day 11 mice were sacrificed and tested from macroscopic inflammation symptoms in the spleen, liver and colon [Neurath M. et al., J Exp Med. 182:1281-90. (1995)].
Mice treated with B11 peptide were treated i.p. with 200 μg/mouse on days 1 and 5.

[9] = Groups S, C and S+C vs Group OVA, 200 μg i.p.

For “FITC-conjugated B11 peptide: B11 peptide conjugated to FITC (ISLTEWSMWYRH; also: FITC conjugated)”, the “binding to THP-1 in presence of D-mannose” value ([1]; 0.125 M D-mannose) was “inhibited by D-mannose”, the “binding to macrophages in presence of D-mannose” value ([2]; FACS, 0.125 M D-mannose) was “inhibited by D-mannose” and the “binding to RAW 264.7” value ([2]; confocal microscopy and FACS) was “bound the macrophage cell line RAW 264.7”.
With “ISLTEWSMWYRH (random phage display library) [B11 peptide]” the “eosonophil levels in peritoneum lavage” value (allergic peritonitis; 200 μg one hour before challenge with OVA) was “as in the control group”, the “IFN-γ levels in peritoneum lavage” value (allergic peritonitis; [9]) was “significantly lower” and the “IL-10 levels in peritoneum lavage” value (allergic peritonitis; [9]) was “significantly lower”. The “IL-12 levels in peritoneum lavage” value (allergic peritonitis; [9]) was “significantly lower”, the inhibition of apoptosis (RAW 264.7 cell line; LPS-IFN-γ-activated RAW 264.7) was 30% and the induction of apoptosis (RAW 264.7 cell line; non-activated RAW 264.7) was “did not induce apoptosis”. The “State after LPS-B11 pre-treatment” value (LPS-induced symptoms [3]; 1 hr post LPS injection) was “healthy”, the “State after LPS-B11 pre-treatment” value (LPS-induced symptoms [3]; 20 hr post LPS injection) was “Healthy” and the “State after LPS-B11 pre-treatment” value (LPS-induced symptoms [3]; 48 hr post LPS injection) was “Healthy”. The “LPS symptoms (appearance, behavior, curing rate)” value (LPS-induced symptoms [3]; pre-treated i.p. 200 μg 4 days before LPS) was “milder LPS symptoms”, the “binding to THP-1” value [1] was “Binds” and the inhibition of proliferation (primary spleen cells; spleen cells of Mtb infected mice) was 40-50%. The inhibition of proliferation (primary spleen cells; spleen cells of adjuvant stimulated mice) was 40-50%, the inhibition of proliferation (primary spleen cells; spleen cells of naive mice) was 40-50% and the “IgG Abs in sera binding the coated antigen” value [4] was “significantly higher than those of the naive mice”. The “decrease in OD in competitive ELISA” value [5] was 100%, the LPS-induced effects (LPS-induced symptoms [6]) was “successfully reduced the LPS-induced effects” and the “binding to CS40 mAb by direct ELISA” value (CS40 mAb) was “bound the CS40 mAb”. For the same substance, the “anti-peptide antibody titers in BCG-vaccinated individuals” value ([7]; BCG-vaccinated vs TB patients) was “significantly lower than in TB patients”, the “titers of antigen-binding antibodies in sera of TB patients” value ([7]; TB patients vs healthy individuals) was “Significantly higher titers” and the “eosonophil levels in BALF” value (allergic asthma; S i.p., C i.p., S+C i.p. and C i.n. vs OVA mice, 200 μg, FACS) was “significantly lower”. For the same substance, the “IL-12 in BALF” value (allergic asthma; all mice treated i.p.) was “significantly lower”, the “IL-10 in BALF” value (allergic asthma; i.n. before challenge, i.p. both before sensitization and challenge) was “significantly lower” and the “TNF-α in BALF” value (allergic asthma; i.p. and i.n. before challenge) was “significantly lower”. The “IL-4 in BALF” value (allergic asthma; i.p. and i.n. before challenge, i.p. both before sensitization and challenge) was “significantly lower”, the “inflammation in lung histology” value (allergic asthma; treated i.p. before sensitizations or before challenges) was “no inflammation was observed” and the “inhibition of IL-12 secretion” value ([8]; LPS-IFN-γ-activated RAW 264.7) was 20%. The “production of IL-12” value ([8]; non-activated RAW 264.7) was “not induced”, the “production of IL-6” value ([8]; non-activated RAW 264.7, data not shown) was “not induced” and the “appearance, behavior, diarrhea, weight loss” value (TNBS induced colitis; all 11 days of experiment, all treated mice) was “normal appearance and behavior, and no diarrhea or weight loss”. The “colons normal in color and thickness” value (TNBS induced colitis; day 11) was 50%, the colons with lesions (TNBS induced colitis; day 11) was “None” and the “macroscopic inflammation symptoms of colon, spleen and liver” value (TNBS induced colitis; day 11) was “reduced”. For the same substance, the “treated mice with spleen and liver normal in size and colorization” value (TNBS induced colitis; day 11) was 75% and the colitis symptoms (TNBS induced colitis; i.p. 200 μg at days 1 and 5) was “reduced the colitis symptoms”.
“CISLTEWSMWYRH [B11 peptide with an additional cysteine residue at the amino terminus]” was tested, and the “binding properties to ManLAM-binding antibodies” value ([4]; peptide with extra cysteine at amino terminus) was “maintained binding properties”.
